Read-outs that look alike come from different tables or passages of the source.
Key:
Type in all cases: cell-based
[1] = tested on: T47D cells expressing mutant PI3Ka (H1047R); assay: In vitro cell proliferation, T47D cells (CellTiter-Glo); conditions: inhibition of proliferation, read-out: Avg T-47D EC50
Summary of the method: (§1)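 T47D cells in RPMI/10% FBS/insulin (0.2 units/mL) or SKBR3 in McCoys 5a/10% FBS, 1,500 cells/well, grown 72 h at 37 °C with 10-point compound dilutions. CellTiter-Glo luminescence; % inhibition normalised to 0.1% DMSO and 10 uM Alpelisib, EC50 from four-parameter curve fit.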

[2] = tested on: phosphorylation of AKT (pAKT) in T47D cells expressing mutant PI3Ka (H1047R); assay: In vitro cell pAKT (Ser473) HTRF, T47D cells; conditions: cellular pAKT, T47D cells, mutant PI3Ka (H1047R), 6 hours, read-out: Avg T-47D IC50
Summary of the method: (§2)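 pAKT (Ser473) was quantified by HTRF in lysates from cells exposed 6 h at 37 °C to 10-point compound series, with T47D in insulin-supplemented RPMI/10% FBS and SKBR3 in McCoy's 5a/10% FBS. Controls: 0.1% DMSO (high) and 10 uM alpelisib (low). IC50 from sigmoidal curve fitting.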

[3] = tested on: SKBR3 cells express WT PI3Ka; assay: In vitro cell proliferation, SKBR3 cells (CellTiter-Glo); conditions: inhibition of proliferation
Summary of the method: as §1

[4] = tested on: phosphorylation of AKT (pAKT) in SKBR3 cells express WT PI3Ka; assay: In vitro cell pAKT (Ser473) HTRF, SKBR3 cells; conditions: cellular pAKT
Summary of the method: as §2

SMILES | EC50 ([1]; Homo sapiens, T47D, 72 h) [nM] | IC50 ([2]; Homo sapiens, T47D, 6 h) [nM] | EC50 ([3]; Homo sapiens, SK-BR-3, 72 h) [nM] | IC50 ([4]; Homo sapiens, SK-BR-3, 6 h) [nM] | EC50 ([1]; 72 hours) [nM] | IC50 [2] [nM] | EC50 ([3]; 72 hours) [nM] | IC50 ([4]; 6 hours) [nM]
Cc1cc(C(C)Nc2ccccc2C(=O)O)c2cc(N3CC(Cl)C3)n(C)c(=O)c2c1 (centres unmarked) [Example 55] | 500 to 2000 | 1 to 500 | > 15000 | > 15000 | – | – | – | –
Cc1cc(C(C)Nc2ccccc2C(=O)O)c2cc(N3CC4(C3)CC(F)(F)C4)n(C)c(=O)c2c1 (centres unmarked) [Example 56] | 2000 to 15000 | 500 to 2000 | > 15000 | > 15000 | – | – | – | –
Cc1cc(C(C)Nc2ccccc2C(=O)O)c2cc(N3CC4(CC(C(F)(F)F)C4)C3)n(C)c(=O)c2c1 (centres unmarked) [Example 57] | 2000 to 15000 | 1 to 500 | > 15000 | > 15000 | – | – | – | –
Cc1cc(C(C)Nc2ccccc2C(=O)O)c2cc(N3CCn4c(C)nnc4C3)n(C)c(=O)c2c1 (centres unmarked) [Example 58] | > 15000 | > 15000 | > 15000 | > 15000 | – | – | – | –
Cc1cc(C(C)Nc2ccccc2C(=O)O)c2cc(N3CCN(C)CC3)n(C)c(=O)c2c1 (centres unmarked) [Example 59] | 500 to 2000 | 500 to 2000 | > 15000 | > 15000 | – | – | – | –
Cc1cc(C(C)Nc2ccccc2C(=O)O)c2cc(N3CCN(CC(F)(F)F)CC3)n(C)c(=O)c2c1 (centres unmarked) [Example 61] | – | – | – | – | 500 to 2000 | 1 to 500 | > 15000 | > 15000
Cc1cc(C(C)Nc2ccccc2C(=O)O)c2cc(N3CCC4(CCCC4)CC3)n(C)c(=O)c2c1 (centres unmarked) [Example 62] | 500 to 2000 | 500 to 2000 | > 15000 | > 15000 | – | – | – | –
Cc1cc(C(C)Nc2ccccc2C(=O)O)c2cc(N3CCC4(CCC4)CC3)n(C)c(=O)c2c1 (centres unmarked) [Example 63] | 2000 to 15000 | 1 to 500 | > 15000 | > 15000 | – | – | – | –
Cc1cc(C(C)Nc2ccccc2C(=O)O)c2cc(N3CC[C@H](c4ccccc4)C3)n(C)c(=O)c2c1 (some centres unmarked) [Example 64] | 500 to 2000 | 1 to 500 | > 15000 | > 15000 | – | – | – | –
Cc1cc(C(C)Nc2ccccc2C(=O)O)c2cc(N3Cc4cccnc4C3)n(C)c(=O)c2c1 (centres unmarked) [Example 65] | 500 to 2000 | 1 to 500 | > 15000 | > 15000 | – | – | – | –
Cc1cc(C(C)Nc2ccccc2C(=O)O)c2cc(N3Cc4ccncc4C3)n(C)c(=O)c2c1 (centres unmarked) [Example 66] | 1 to 500 | 1 to 500 | > 15000 | > 15000 | – | – | – | –
Cc1cc(C(C)Nc2ccccc2C(=O)O)c2cc(N3Cc4cccc(C(F)(F)F)c4C3)n(C)c(=O)c2c1 (centres unmarked) [Example 67] | – | – | – | – | 500 to 2000 | 1 to 500 | > 15000 | > 15000
Cc1cc(C(C)Nc2ccccc2C(=O)O)c2cc(-c3ccc(C)nc3)n(C)c(=O)c2c1 (centres unmarked) [Example 68] | 500 to 2000 | 1 to 500 | > 15000 | > 15000 | – | – | – | –
Cc1cc(C(C)Nc2ccccc2C(=O)O)c2cc(N3C4CCCC3CC4)n(C)c(=O)c2c1 (centres unmarked) [Example 69] | 500 to 2000 | 1 to 500 | > 15000 | > 15000 | – | – | – | –
Cc1cc(C(C)Nc2ccccc2C(=O)O)c2cc(N3C[C@@H]4[C@@H](C#N)[C@@H]4C3)n(C)c(=O)c2c1 (some centres unmarked) [Example 70] | 500 to 2000 | 500 to 2000 | > 15000 | > 15000 | – | – | – | –
Cc1cc(C(C)Nc2ccc(Cl)nc2C(=O)O)c2cc(N3Cc4ccc(F)cc4C3)n(C)c(=O)c2c1 (centres unmarked) [Example 71] | 500 to 2000 | 1 to 500 | > 15000 | 2000 to 15000 | – | – | – | –
Cc1cc(C(C)Nc2ccccc2C(=O)O)c2cc(N3Cc4cncnc4C3)n(C)c(=O)c2c1 (centres unmarked) [Example 72] | 2000 to 15000 | 500 to 2000 | > 15000 | > 15000 | – | – | – | –
Cc1cc([C@@H](C)Nc2ccccc2C(=O)O)c2cc(N3C[C@H]4CN(CC(F)(F)F)C[C@H]4C3)n(C)c(=O)c2c1 [Example 73] | 500 to 2000 | 1 to 500 | > 15000 | > 15000 | – | – | – | –
Cc1ccc(-c2cc3c(C(C)Nc4ccccc4C(=O)O)cc(C)cc3c(=O)n2C)nc1 (centres unmarked) [Example 74] | 2000 to 15000 | 500 to 2000 | > 15000 | > 15000 | – | – | – | –

Continued, values first:

EC50 ([1]; Homo sapiens, T47D, 72 h) [nM] | IC50 ([2]; Homo sapiens, T47D, 6 h) [nM] | EC50 ([3]; Homo sapiens, SK-BR-3, 72 h) [nM] | IC50 ([4]; Homo sapiens, SK-BR-3, 6 h) [nM] | EC50 ([1]; 72 hours) [nM] | IC50 [2] [nM] | EC50 ([3]; 72 hours) [nM] | IC50 ([4]; 6 hours) [nM] | SMILES
500 to 2000 | 1 to 500 | > 15000 | > 15000 | – | – | – | – | Cc1cc(C(C)Nc2ccccc2C(=O)O)c2cc(-c3cc4ccc(F)cc4[nH]3)n(C)c(=O)c2c1 (centres unmarked) [Example 75]
500 to 2000 | 1 to 500 | > 15000 | > 15000 | – | – | – | – | Cc1cc(C(C)Nc2ccccc2C(=O)O)c2cc(N3Cc4cc(F)cc(F)c4C3)n(C)c(=O)c2c1 (centres unmarked) [Example 84]
1 to 500 | 1 to 500 | > 15000 | 2000 to 15000 | – | – | – | – | Cc1cc(C(C)Nc2ccccc2C(=O)O)c2cc(N3CC4CCC(C4)C3)n(C)c(=O)c2c1 (centres unmarked) [Example 85]
2000 to 15000 | 500 to 2000 | > 15000 | > 15000 | – | – | – | – | Cc1cc(C(C)Nc2ccccc2C(=O)O)c2cc(N3CCc4ncncc4C3)n(C)c(=O)c2c1 (centres unmarked) [Example 86]
2000 to 15000 | 2000 to 15000 | > 15000 | > 15000 | – | – | – | – | CC(=O)N1C[C@@H]2CN(c3cc4c(C(C)Nc5ccccc5C(=O)O)cc(C)cc4c(=O)n3C)C[C@H]2C1 (some centres unmarked) [Example 87]
500 to 2000 | 500 to 2000 | 2000 to 15000 | > 15000 | – | – | – | – | Cc1cc(C(C)Nc2ccc(Cl)nc2C(=O)O)c2cc(N3CCC(C)(C)CC3)n(C)c(=O)c2c1 (centres unmarked) [Example 88]
2000 to 15000 | 500 to 2000 | > 15000 | > 15000 | – | – | – | – | Cc1cc(C(C)Nc2ccccc2C(=O)O)c2cc(N3Cc4c(F)c(F)c(F)c(F)c4C3)n(C)c(=O)c2c1 (centres unmarked) [Example 89]
– | – | – | – | 1 to 500 | 1 to 500 | 2000 to 15000 | > 15000 | Cc1cc(C(C)Nc2ccccc2C(=O)O)c2cc(N3CCC4(CCN(CC(F)(F)F)CC4)CC3)n(C)c(=O)c2c1 (centres unmarked) [Example 91]
1 to 500 | 1 to 500 | 2000 to 15000 | 2000 to 15000 | – | – | – | – | Cc1cc(C(C)Nc2ccccc2C(=O)O)c2cc(N3CCC4(CCN(CC(F)(F)F)C4)CC3)n(C)c(=O)c2c1 (centres unmarked) [Example 94]
500 to 2000 | 500 to 2000 | > 15000 | > 15000 | – | – | – | – | COCCC(=O)N1CCN(c2cc3c(C(C)Nc4ccccc4C(=O)O)cc(C)cc3c(=O)n2C)CC1 (centres unmarked) [Example 95]
500 to 2000 | 1 to 500 | > 15000 | > 15000 | – | – | – | – | Cc1cc([C@@H](C)Nc2ccccc2C(=O)O)c2cc(N3CC[C@@]4(CCCN(CC(F)(F)F)C4)C3)n(C)c(=O)c2c1 [Example 98]
1 to 500 | 1 to 500 | 2000 to 15000 | > 15000 | – | – | – | – | Cc1cc([C@@H](C)Nc2ccccc2C(=O)O)c2cc(N3CC[C@]4(CCCN(CC(F)(F)F)C4)C3)n(C)c(=O)c2c1 [Example 99]
– | – | – | – | 500 to 2000 | 500 to 2000 | > 15000 | > 15000 | Cc1cc(C(C)Nc2ccccc2C(=O)O)c2cc(N3CC4CCCC(C4)C3)n(C)c(=O)c2c1 (centres unmarked) [Example 116]
1 to 500 | 1 to 500 | 2000 to 15000 | 2000 to 15000 | – | – | – | – | Cc1cc([C@@H](C)Nc2ccc(Cl)nc2C(=O)O)c2cc(-c3ccc(C)nc3)n(C)c(=O)c2c1 [Example 130]
1 to 500 | 1 to 500 | > 15000 | > 15000 | – | – | – | – | Cc1cc(C(C)Nc2ccccc2C(=O)O)c2cc(N3CCN4CC(F)(F)C[C@@H]4C3)n(C)c(=O)c2c1 (some centres unmarked) [Example 140]
1 to 500 | 1 to 500 | > 15000 | 2000 to 15000 | – | – | – | – | COc1cccc(N2CCN(c3cc4c([C@@H](C)Nc5ccccc5C(=O)O)cc(C)cc4c(=O)n3C)CC2)c1 [Example 147]
500 to 2000 | 500 to 2000 | > 15000 | > 15000 | – | – | – | – | Cc1cc([C@@H](C)Nc2ccc(Cl)nc2C(=O)O)c2cc(N3CCN(C4COC4)CC3)n(C)c(=O)c2c1 [Example 148]
500 to 2000 | 1 to 500 | > 15000 | > 15000 | – | – | – | – | Cc1cc([C@@H](C)Nc2ccccc2C(=O)O)c2cc(N3CC(c4ccccn4)C3)n(C)c(=O)c2c1 [Example 152]
1 to 500 | 1 to 500 | > 15000 | > 15000 | – | – | – | – | Cc1cc([C@@H](C)Nc2ccccc2C(=O)O)c2cc(N3CCN(CC4OCCO4)CC3)n(C)c(=O)c2c1 [Example 157]
1 to 500 | 1 to 500 | > 15000 | > 15000 | – | – | – | – | CON1CCN(c2cc3c([C@@H](C)Nc4ccccc4C(=O)O)cc(C)cc3c(=O)n2C)CC1 [Example 158]
– | – | – | – | 2000 to 15000 | 500 to 2000 | > 15000 | > 15000 | Cc1cc(C(C)Nc2ccccc2C(=O)O)c2cc(C#Cc3cccc(C#N)c3)n(C)c(=O)c2c1 (centres unmarked) [Example 159]
– | – | – | – | 1 to 500 | 1 to 500 | > 15000 | > 15000 | Cc1cc([C@@H](C)Nc2ccccc2C(=O)O)c2cc(N3CCN(c4cccc(Cl)c4)CC3)n(C)c(=O)c2c1 [Example 160]

— patent US20260078103A1, “ISOQUINOLONES AS PI3K INHIBITORS” (OnKure, Inc., priority 2022, published 2026)
